Data on 25 compounds can be found in patent US7091199B1, “Thienoisoxazole phenoxy unsubstituted ethyl and propyl derivatives useful as d4 antagonists” (Aventis Pharmaceuticals Inc., priority 1999, dated 2006).

Counter-ions that a name gives are not always drawn.

One experiment deals with T1, human D4 receptor (D4.2 sub-type) (Homo sapiens, UniProt P21917, DEL271-302).
T1 sequence (P21917 with tags, fused parts or gaps DEL271-302): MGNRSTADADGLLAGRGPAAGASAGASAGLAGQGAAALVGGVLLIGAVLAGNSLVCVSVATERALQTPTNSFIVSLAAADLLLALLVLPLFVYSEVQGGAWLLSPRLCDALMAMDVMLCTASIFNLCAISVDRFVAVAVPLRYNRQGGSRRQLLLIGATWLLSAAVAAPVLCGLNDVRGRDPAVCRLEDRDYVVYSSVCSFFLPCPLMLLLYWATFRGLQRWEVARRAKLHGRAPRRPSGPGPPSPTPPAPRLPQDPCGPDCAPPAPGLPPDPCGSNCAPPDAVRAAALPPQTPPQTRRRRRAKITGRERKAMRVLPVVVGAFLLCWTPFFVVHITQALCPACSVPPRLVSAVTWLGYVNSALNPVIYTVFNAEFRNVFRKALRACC
The experiment is described as follows: D4 receptor binding assay (3H-spiperone displacement). The note with it: 3H-spiperone 0.25 nM, HEK cell membranes, human D4.2; read-out: D4 RBA Ki. As to the method:
D4 receptor-binding affinities of the compounds were evaluated according to their ability to reduce binding of ^3H-spiperone as compared to the reference compound clozapine. The potency of the test compound to reduce ^3H-spiperone binding directly correlated to its binding affinity for the receptor.
[…] (human embryonic kidney) cells stably transfected with human D4 receptor (D4.2 sub-type) were grown in NUNC cell factories for 5 days (75% confluency) without a media change and removed with versene (approximately 19 mg of cells per cell factory tray). The cells were then centrifuged in a Sorval centrifuge for 10 min, 5000 rpm (GS3 rotor) and the pellets quickly frozen in liquid nitrogen and stored at −80° C. until used in binding assay. When used in the assay, cells were thawed on ice for 20 min and then 10 mL of incubation buffer (50 mM Tris, 1 mM EDTA, 4 mM MgCl2, 5 mM KCl, 1.5 mM CaCl2, 120 mM NaCl, pH 7.4) was added. The cells were then vortexed to resuspend pellet and homogenized with a Kinematica, CH-6010 Kriens-LU, homogenizer for 15 seconds at setting 7. Concentration of receptor protein was determined using the Pierce BCA assay.
The incubation was started by the addition of 100 μl (50 μg protein) membrane homogenate to a solution of 300 μl incubation buffer and 100 μl (0.25 nM final conc.) ^3H-spiperone (90 Ci/mmol, Amersham, diluted in borosilicate glass vial) in 96-well polypropylene plates (1 mL per well). The plates were vortexed and incubated at room temperature for 90 minutes. The binding reaction was stopped by filtering using a Packard Harvester. The samples were filtered under vacuum over glass fibre filter plates (Whatman GF/B) presoaked for 2 hours in 0.3% polyethylenimine (PEI) in 50 mM Tris buffer (pH 7.4). The filters were then washed 6 times with 7 mL ice cold 50 mM Tris buffer (pH 7.4). The filter plates were dried overnight and 35 μl of Microscint-O (Packard) was added. The plates were sealed and counted in the Packard Top Count (3 minutes per well).
The incubation was started by the addition of 100 μl (50 μg protein) membrane homogenate to a solution of 200 μl incubation buffer, 100 μl ^3H-spiperone (90 Ci/mmol, Amersham, diluted in borosilicate glass vial to 0.25 nM final conc.) and 100 μl (30 μM final conc.) of fresh dopamine (Research Biochemicals Inc., light protected and dissolved in incubation buffer) in 96-well polypropylene plates (1 mL per well). The plates were vortexed and incubated at room temperature for 90 minutes at which time the binding reaction was stopped by filtering. The filters were washed and counted using the same procedure as in the total binding assay described above to give the non-specific binding value (NSB).
The incubation was started by the addition, in 96-well polypropylene plates (1 mL per well), of 100 μl (50 μg protein) membrane homogenate to a solution of 200 μl incubation buffer, 100 μl (0.25 nM final conc.) ^3H-spiperone (90 Ci/mmol, Amersham, diluted in borosilicate glass vial) and 100 μl of test compound that was prepared from 1 mM stock dissolved in DMSO and stored at −20° C. in polypropylene cryogenic storage vials until dilution in incubation buffer in 96-well polypropylene plates. The plates were vortexed and incubated at room temperature for 90 minutes at which time the binding reaction was stopped by filtering. The filters were washed and counted using the same procedure as in the total binding assay described above to give the displacement binding value (BD).
The test compounds were initially assayed at 1 and 0.1 μM and then at a range of concentrations chosen such that the middle dose would cause about 50% inhibition of ^3H-spiperone binding. Specific binding in the absence of test compound (B0) was the difference of total binding (BT) minus non-specific binding (NSB) and similarly specific binding (in the presence of test compound) (B) was the difference of displacement binding (BD) minus non-specific binding (NSB). […]
By Ki is commonly meant a measure of affinity in units of concentration, obtained from inhibition or displacement. For the compound `Fc1ccc(CNCCCOc2cccc(-c3noc4ccsc34)c2)cc1` [Compound 3, (4-fluoro-benzyl)-[3-(3-thieno[2,3-d]isoxazol-3-yl-phenoxy)-propyl]-amine], the Ki amounted to 17 nM.
`c1cc(OCCCNCc2ccsc2)cc(-c2noc3ccsc23)c1` [Compound 7, [3-(3-thieno[2,3-d]isoxazol-3-yl-phenoxy)-propyl]-thiophen-3-yl-methylamine]: the Ki was 18 nM.
Consider `c1cnc(N2CCN(CCCOc3cccc(-c4noc5ccsc45)c3)CC2)nc1` [Compound 13, 3-{3-[3-(4-pyrimidin-2-yl-piperazin-1-yl)-propoxy]-phenyl}-thieno[2,3-d]isoxazole], for which the Ki is 55 nM.
For `Fc1ccc(CNCCOc2cccc(-c3noc4ccsc34)c2)cc1` [Compound 17, (4-fluoro-benzyl)-[2-(3-thieno[2,3-d]isoxazol-3-yl-phenoxy)-ethyl]-amine], the Ki came out at 12 nM.
`c1cc(OCCNC2Cc3ccccc3C2)cc(-c2noc3ccsc23)c1` [Compound 46, indan-2-yl-[2-(3-thieno[2,3-d]isoxazol-3-yl-phenoxy)-ethyl]-amine hydrochloride]: the Ki worked out at 36.1 nM.
As to `c1cc(OCCNC23CC4CC(CC(C4)C2)C3)cc(-c2noc3ccsc23)c1` [Compound 47, adamantan-1-yl-[2-(3-thieno[2,3-d]isoxazol-3-yl-phenoxy)-ethyl]-amine], the inhibition constant (Ki) came to 23 nM.

Staying with this experiment, now noted: @ 1 μM test compound; 3H-spiperone binding; read-out: D4 RBA % Inhibition (@ 1 μM).
Usually inhibition stands for the drop in the measured response relative to a control, in per cent. Consider `c1cc(OCCCNC2CCc3ccccc32)cc(-c2noc3ccsc23)c1` (stereo not drawn) [Compound 43], for which the inhibition at 1 µM was determined as 94%.
As for `c1cc(OCCCNC2Cc3ccccc3C2)cc(-c2noc3ccsc23)c1` [Compound 44, indan-2-yl-[3-(3-thieno[2,3-d]isoxazol-3-yl-phenoxy)-propyl]-amine], the inhibition at 1 µM was 96%.
The same measure, in the same setting: under `c1cc(OCCCN2CCc3ccccc3C2)cc(-c2noc3ccsc23)c1` [Compound 45, 2-[3-(3-thieno[2,3-d]isoxazol-3-yl-phenoxy)-propyl]-1,2,3,4-tetrahydroisoquinoline] stands 52%; under `c1cc(OCCN2CCCCC2)cc(-c2noc3ccsc23)c1` [Compound 48, 3-[3-(2-piperidin-1-yl-ethoxy)-phenyl]-thieno[2,3-d]isoxazole], 83%.
Take `Fc1ccc(CNCCOc2cccc(-c3noc4ccsc34)c2)c(F)c1` [Compound 49, (2,4-difluoro-benzyl)-[2-(3-thieno[2,3-d]isoxazol-3-yl-phenoxy)-ethyl]-amine]: the inhibition at 1 µM is 95%.
Turning to `Fc1cccc(F)c1CNCCOc1cccc(-c2noc3ccsc23)c1` [Compound 50, (2,6-difluoro-benzyl)-[2-(3-thieno[2,3-d]isoxazol-3-yl-phenoxy)-ethyl]-amine], the inhibition at 1 µM turned out to be 65%.
Take `FC(F)(F)c1ccccc1CNCCOc1cccc(-c2noc3ccsc23)c1` [Compound 51, [2-(3-thieno[2,3-d]isoxazol-3-yl-phenoxy)-ethyl]-(2-trifluoromethylbenzyl)-amine]: the inhibition at 1 µM came to 58%.
Consider `FC(F)(F)c1ccc(CNCCOc2cccc(-c3noc4ccsc34)c2)cc1` [Compound 52, [2-(3-thieno[2,3-d]isoxazol-3-yl-phenoxy)-ethyl]-(4-trifluoromethylbenzyl)-amine], for which the inhibition at 1 µM came out at 96%.
In the case of `c1cc(OCCCNC23CC4CC(CC(C4)C2)C3)cc(-c2noc3ccsc23)c1` [Compound 53, adamantan-1-yl-[3-(3-thieno[2,3-d]isoxazol-3-yl-phenoxy)-propyl]-amine], the inhibition at 1 µM was 94%.
Turning to `c1cc(OCCCN2CCCCC2)cc(-c2noc3ccsc23)c1` [Compound 54, 3-[3-(3-piperidin-1-yl-propoxy)-phenyl]-thieno[2,3-d]isoxazole], the inhibition at 1 µM is 94%.
Same read-out and setting: under `Fc1ccc(CNCCCOc2cccc(-c3noc4ccsc34)c2)c(F)c1` [Compound 55, (2,4-difluoro-benzyl)-[3-(3-thieno[2,3-d]isoxazol-3-yl-phenoxy)-propyl]-amine] stands 92%; under `Fc1cccc(F)c1CNCCCOc1cccc(-c2noc3ccsc23)c1` [Compound 56, (2,6-difluoro-benzyl)-[3-(3-thieno[2,3-d]isoxazol-3-yl-phenoxy)-propyl]-amine], 64%.
Still for that read-out and setting: for `FC(F)(F)c1ccccc1CNCCCOc1cccc(-c2noc3ccsc23)c1` [Compound 57, [3-(3-thieno[2,3-d]isoxazol-3-yl-phenoxy)-propyl]-(2-trifluoromethylbenzyl)-amine] the value was 46%.
Take `FC(F)(F)c1ccc(CNCCCOc2cccc(-c3noc4ccsc34)c2)cc1` [Compound 58, [3-(3-thieno[2,3-d]isoxazol-3-yl-phenoxy)-propyl]-(4-trifluoromethylbenzyl)-amine]: the inhibition at 1 µM was found to be 77%.
Consider `CC1CCN(CCOc2cccc(-c3noc4ccsc34)c2)CC1` [Compound 59, 3-{3-[2-(4-methyl-piperidin-1-yl)-ethoxy]-phenyl}-thieno[2,3-d]isoxazole], for which the inhibition at 1 µM was 90%.
For the compound `CCCC1CCN(CCOc2cccc(-c3noc4ccsc34)c2)CC1` [Compound 60, 3-{3-[2-(4-propyl-piperidin-1-yl)-ethoxy]-phenyl}-thieno[2,3-d]isoxazole], the inhibition at 1 µM worked out at 82%.
Still for that read-out and setting: under `c1cc(OCCN2CCCC2)cc(-c2noc3ccsc23)c1` [Compound 61, 3-[3-(2-pyrrolidin-1-yl-ethoxy)-phenyl]-thieno[2,3-d]isoxazole] stands 41%; under `c1cc(OCCN2CCCCCC2)cc(-c2noc3ccsc23)c1` [Compound 62, 3-[3-(2-azepan-1-yl-ethoxy)-phenyl]-thieno[2,3-d]isoxazole], 90%; under `c1cc(OCCN2CCCCCCC2)cc(-c2noc3ccsc23)c1` [Compound 63, 3-[3-(2-azocan-1-yl-ethoxy)-phenyl]-thieno[2,3-d]isoxazole], 54%.

For a further experiment, the system named is CD-1 or C57 male mice (MK-801 induced stereotypy). The experiment is described as follows: MK-801 Stereotypy in Mice. The note with it: Mus musculus, PO, MK-801 stereotypy, read-out: In Vivo ED50. The class given is in vivo. As for the experimental part:
Mk-801 dose-dependently induces characteristic stereotypy marked by locomotion and falling behavior. This MK-801 induced behavior can be antagonized by novel neuroleptic agents. This assay can also assess time course effects following drug administration.
CD-1 or C57 male mice are individually placed in activity boxes (8 mice/drug) and allowed to acclimate for 60 minutes. The mice are then administered test compounds either i.p., s.c., or p.o., at 15, 30, or 60 minutes prior to MK-801 (0.2 mg/kg) administration. Mice are observed for the presence of locomotion and falling behaviors 15 minutes following MK-801. For the duration of action studies the test compounds are administered i.p., s.c., or p.o., at 30, 60, 120, 180, and 240 minutes prior to MK-801 administration.
Broadly, the ED50 is the midpoint of the dose-response relation. As for `Fc1ccc(CNCCOc2cccc(-c3noc4ccsc34)c2)cc1` [Compound 17, (4-fluoro-benzyl)-[2-(3-thieno[2,3-d]isoxazol-3-yl-phenoxy)-ethyl]-amine], the ED50 turned out to be 14.1 mg/kg.

The experiment is the same for the next values; noted with them: Mus musculus, ip, 20 mg/kg, read-out: Antag. of MK 801 Stereotypy % Inhib. @ 20 mg/kg.
As for `c1cnc(N2CCN(CCCOc3cccc(-c4noc5ccsc45)c3)CC2)nc1` [Compound 13, 3-{3-[3-(4-pyrimidin-2-yl-piperazin-1-yl)-propoxy]-phenyl}-thieno[2,3-d]isoxazole], the inhibition in vivo at 20 mg/kg came out at 37.5%.

Still in this experiment, the particulars now being: Mus musculus, po, 20 mg/kg, read-out: Antag. of MK 801 Stereotypy % Inhib. @ 20 mg/kg.
With `Fc1ccc(CNCCCOc2cccc(-c3noc4ccsc34)c2)cc1` [Compound 3, (4-fluoro-benzyl)-[3-(3-thieno[2,3-d]isoxazol-3-yl-phenoxy)-propyl]-amine], the inhibition in vivo at 20 mg/kg turned out to be 37.5%.
As for `c1cc(OCCCNCc2ccsc2)cc(-c2noc3ccsc23)c1` [Compound 7, [3-(3-thieno[2,3-d]isoxazol-3-yl-phenoxy)-propyl]-thiophen-3-yl-methylamine], the inhibition in vivo at 20 mg/kg is 75%.
Regarding `Fc1ccc(CNCCOc2cccc(-c3noc4ccsc34)c2)cc1` [Compound 17, (4-fluoro-benzyl)-[2-(3-thieno[2,3-d]isoxazol-3-yl-phenoxy)-ethyl]-amine], the inhibition in vivo at 20 mg/kg was found to be 62.5%.
